Measured values from patent US20100215588A1, “THERAPEUTIC DELIVERY OF INHIBITORY NUCLEIC ACID MOLECULES TO THE RESPIRATORY SYSTEM” (priority 2007, published 2010).

Experiments:
Format in all cases: in vivo, cynomolgus monkeys
[1] = I5NP siRNA concentration and non-compartmental pharmacokinetics in plasma after single oronasal inhalation (hybridisation assay); details: for tmax: Treatment 1 (I5NP only), single oronasal inhalation; for AUC0-inf / AUC0-tlast / Cmax / Extrapolation (AUC0-inf − AUC0-tlast)/AUC0-inf × 100 / kel / t1/2 / tlast: Treatment 1, single oronasal inhalation
Experimental: (§1) Male cynomolgus monkeys were administered single oronasal inhalation doses of a nebulised aerosol formulation of fluorescent-labelled REDD14Cy3.5 and/or I5NP siRNAs. Following dosing, the concentration of I5NP in plasma, the non-compartmental disposition kinetics of I5NP in plasma, the qualitative distribution of REDD14Cy3.5 in lungs and the semi-quantitative distribution of I5NP in lungs were determined.
Three separate dose treatments were administered to the animals as detailed below. The theoretical inhalation achieved doses of siRNA were calculated from the respiratory minute volume (measured during pre-treatment), the aerosol concentration of the test article (measured gravimetrically during pre-treatment calibration of the nebuliser), the treatment time, the total aerosol depostion fraction (assumed as 100%) and the animal bodyweights on the day before each dose administration.
(§2) On Day 1 of the study, four of the available monkeys (101 to 104) were administered a target dose of 35 mg/kg of I5NP siRNA via an oronasal mask as a nebulized aerosol generated by the Aeroneb device. A 2.0 L/min dilution airflow was used. The total dose administered was calculated, based on the bodyweights and measured respiratory minute volumes of the animals, and on the achieved output of the Aeroneb device using the formulation concentration of 40 mg/mL. The administered dose was adjusted by changing the exposure times for the animals. Animals received treatment sequentially, rather than in parallel, using the single calibrated test Aeroneb.
as §2, with “35” for “1”, “Study,” for “study, four of”, “three remaining main study animals (103” for “available monkeys (101”, “105)” for “104)”, “animals.” for “animals. Animals received treatment sequentially, rather than in parallel, using the single calibrated test Aeroneb.”
A blood sample (0.5 mL) was collected at pre-dose, and at 15 minutes, 30 minutes, 1, 2, 4, 6, 8 and 24 hours post-end of inhalation, from the left or right femoral vein of each animal that received the full dose (101, 102, 103 and 106). Blood was collected into tubes with K3EDTA as the anticoagulant and then placed on wet ice pending centrifugation.
A blood sample (0.5 mL) was collected at pre-dose and at 15 minutes post-end of inhalation from all animals (103, 104 and 105). A third blood sample was collected at 6 h (animal 103), 24 h (animal 104) or 72 h (animal 105) post-end of inhalation. Blood was collected, into K3EDTA tubes, from the left or right femoral vein of each animal (103 to 105), and placed on wet ice pending centrifugation.
Blood was kept on wet ice until it was centrifuged, at 4° C. and 2700 rpm for approximately 10 minutes, to separate plasma (within 1 hour of collection). Plasma samples were separated, transferred to appropriately labeled vials and placed on dry ice prior to storage at approximately −80° C.
Following Treatments 1 and 3, plasma samples were analyzed for I5NP siRNA concentration at PCS-MTL according to a validated hybridization method.
Non-compartmental disposition kinetics in plasma was performed on concentration data from individual animals following Treatment 1. The following parameters were estimated as applicable:
All pharmacokinetic parameters were estimated using WinNonlin version 3.2 computer software.

[2] = Qualitative distribution of REDD14Cy3.5 siRNA in lung and kidney (fluorescence analysis); details: after oronasal inhalation
Experimental: On Day 15 of the study, two of the available animals (101 and 102) were administered a target dose of 35 mg/kg of a mixture of I5NP and REDD14Cy3.5 (fluorescence-labelled) siRNA via an oronasal mask as a nebulized aerosol generated by the Aeroneb device. A 2.0 L/min dilution airflow was used. The total dose of siRNA administered was calculated, based on the bodyweights and measured respiratory minute volumes of the animals, and on the achieved output of the Aeroneb device using the formulation concentration of 40 mg/mL of siRNA. The administered dose was adjusted by changing the exposure times for the animals
At the time of necropsy following Treatment 2, the lungs, bronchi and trachea of animal 102 were removed from the animal. The lungs were perfused with 4% paraformaldehyde, introduced using a syringe, via the trachea and/or bronchus and stored in this fixative at ambient temperature for a period of approximately 21 hours. Following this, as much as possible of the original fixative fluid was withdrawn by syringe via the trachea/bronchus and replaced with 0.2% paraformaldehyde. The fixed lungs were analyzed for fluorescence distribution.
At the time of necropsy following Treatment 2, the right kidney of animal 102 was removed from the animal. The kidney was dissected into quarters by making one longitudinal and one transverse cut, each to pass through the hilus, and then immersed in 4% paraformaldehyde and refrigerated for approximately 21 hours. Following this, the fixing solution was changed to 0.2% paraformaldehyde and the kidney was analyzed for fluorescence distribution.
Following Treatment 2, lung and kidney samples from animal 102 were analyzed for distribution of fluorescence (from REDD14Cy3.5 siRNA). The results were considered to be qualitative.

[3] = Clinical observations after inhalation doses of siRNA
Experimental: as §1
Animals were treated with test aerosols using a pediatric anesthetic-type oronasal face mask fitted with inlet and outlet tubes and a breathing loop. During treatment, animals were placed in a restraint sling. The test atmospheres were generated using an Aeroneb (Aerogen) nebulizer, and assessed for output as described below. The level of exposure to the test article was achieved by varying the duration of exposure.
as §2, with “Animals received treatment sequentially, rather than in parallel, using the single calibrated test Aeroneb.” left out

[4] = Treatment 1, 8 hours post-end of dose
[5] = plasma, Treatment 1, mean of 4 animals

I5NP: exemplary p53 inhibiting siRNA; sense GAGAAUAUUUCACCCUUCA, antisense UGAAGGGUGAAAUAUUCUC (chemistry not given here)
highest mean concentration in plasma ([1]; Treatment 1, 15 minutes post-end of dosing, mean of 4 animals): 21.0 ± 5.01 ng/mL | mean plasma level [1, 4]: 0.588 ± 0.561 ng/mL | plasma level as % of the Cmax value [1, 4]: approximately 3% | plasma concentration ([1]; Treatment 1, 24 h post-end of dosing, animal 101): 0.205 ng/mL | plasma concentration (below limit of quantitation) ([1]; Treatment 1, after 8 h or 24 h post-end of dosing (at 24 h all animals other than 101)): < 0.10 ng/mL | absorption into the systemic circulation from the inhaled dose ([1]; Treatment 1, oronasal inhalation): rapid | mean plasma concentration ([1]; Treatment 3, 15 minutes post-end of dose): 40.3 ± 14.5 ng/mL | plasma level ([1]; Treatment 3, 6 h post-end of dose, animal 103): 11.1 ng/mL | plasma level ([1]; Treatment 3, 24 h post-end of dose, animal 104): 0.192 ng/mL | plasma concentration (less than limit of quantitation) ([1]; Treatment 3, 72 hours post-end of dosing, animal 105): < 0.10 ng/mL | tmax ([1]; plasma, animal 101): 0.5 h | tmax ([1]; plasma, animal 102): 0.5 h | tmax ([1]; plasma, animal 103): 0.42 h | tmax ([1]; plasma, animal 106): 0.42 h | AUC0-inf ([1]; plasma, animal 101): 72.0 ng·h/mL | AUC0-tlast ([1]; plasma, animal 101): 70.3 ng·h/mL | Cmax ([1]; plasma, animal 101): 26.3 ng/mL | Extrapolation (AUC0-inf − AUC0-tlast)/AUC0-inf × 100 ([1]; plasma, animal 101): 2.36% | kel ([1]; plasma, animal 101): 0.121 h⁻¹ | t1/2 ([1]; plasma, animal 101): 5.74 h | tlast ([1]; plasma, animal 101): 24.25 h | AUC0-inf ([1]; plasma, animal 102): 27.3 ng·h/mL | AUC0-tlast ([1]; plasma, animal 102): 27.1 ng·h/mL | Cmax ([1]; plasma, animal 102): 18.0 ng/mL | Extrapolation (AUC0-inf − AUC0-tlast)/AUC0-inf × 100 ([1]; plasma, animal 102): 0.824% | kel ([1]; plasma, animal 102): 0.467 h⁻¹ | t1/2 ([1]; plasma, animal 102): 1.48 h | tlast ([1]; plasma, animal 102): 8.25 h | AUC0-inf ([1]; plasma, animal 103): 46.8 ng·h/mL | AUC0-tlast ([1]; plasma, animal 103): 42.4 ng·h/mL | Cmax ([1]; plasma, animal 103): 24.0 ng/mL | Extrapolation (AUC0-inf − AUC0-tlast)/AUC0-inf × 100 ([1]; plasma, animal 103): 9.40% | kel ([1]; plasma, animal 103): 0.252 h⁻¹ | t1/2 ([1]; plasma, animal 103): 2.75 h | tlast ([1]; plasma, animal 103): 8.17 h | AUC0-inf ([1]; plasma, animal 106): 16.1 ng·h/mL | AUC0-tlast ([1]; plasma, animal 106): 15.8 ng·h/mL | Cmax ([1]; plasma, animal 106): 15.6 ng/mL | Extrapolation (AUC0-inf − AUC0-tlast)/AUC0-inf × 100 ([1]; plasma, animal 106): 2.26% | kel ([1]; plasma, animal 106): 0.277 h⁻¹ | t1/2 ([1]; plasma, animal 106): 2.50 h | tlast ([1]; plasma, animal 106): 8.17 h | mean AUC0-inf [1, 5]: 40.6 ± 24.5 ng·h/mL | mean AUC0-tlast [1, 5]: 38.9 ± 23.6 ng·h/mL | mean kel [1, 5]: 0.279 ± 0.143 h⁻¹ | mean t1/2 [1, 5]: 3.12 ± 1.83 h | distribution in lung, I5NP (hybridization) and REDD14Cy3.5 (fluorescence) compared [2]: little difference in the distribution of the two test articles in lung | macroscopic findings in organs and tissues ([3]; necropsy after inhalation doses): of no toxicological significance | treatment-related clinical signs ([3]; single oronasal inhalation doses, target 35 mg/kg): No treatment-related clinical signs were observed
